According to US9023789B2, “Amylin analogs and pharmaceutical compositions thereof” (Novo Nordisk A/S, priority 2012, dated 2015):

Key:
[1] = ASSAY (III) ThT fibrillation assay for physical stability; type: physicochemical
Summary of the method: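 Physical stability scored by ThT fluorescence (444 nm excitation, 485 nm emission) tracked every 20 min during 37 °C incubation with 960 rpm shaking, ThT at 1 μM final. Values are replicate means with SD at chosen times; HPLC against pramlintide standard gives initial and post-assay soluble concentrations.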

[2] = molecular target: T1, human amylin 3(a) receptor (human calcitonin receptor + RAMP-3) in BHK570 cells (Homo sapiens, UniProt O60896+P30988); test: ASSAY (II)a functional assay, human amylin receptor (CRE luciferase); type: cell-based
T1 construct: expressed in transfected cells
Summary of the method: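 Functional agonism was measured by CRE-luciferase reporter luminescence in BHK cells bearing calcitonin receptor, or calcitonin receptor plus RAMP-3 as the amylin 3(a) receptor. Stimulation lasted 3 hours at 37° C.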

[3] = hCTR funct. EC50 divided by hAmylin-R funct. EC50
[4] = hCTR funct. EC50 over hAmylin-R funct. EC50
[5] = human functional selectivity: hCTR funct. EC50 / hAmylin-R funct. EC50

T1 sequence (O60896 24-148): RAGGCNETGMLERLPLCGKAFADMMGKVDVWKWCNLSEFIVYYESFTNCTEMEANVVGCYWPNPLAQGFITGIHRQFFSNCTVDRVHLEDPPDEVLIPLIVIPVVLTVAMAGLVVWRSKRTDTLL
T1 sequence (P30988 25-474): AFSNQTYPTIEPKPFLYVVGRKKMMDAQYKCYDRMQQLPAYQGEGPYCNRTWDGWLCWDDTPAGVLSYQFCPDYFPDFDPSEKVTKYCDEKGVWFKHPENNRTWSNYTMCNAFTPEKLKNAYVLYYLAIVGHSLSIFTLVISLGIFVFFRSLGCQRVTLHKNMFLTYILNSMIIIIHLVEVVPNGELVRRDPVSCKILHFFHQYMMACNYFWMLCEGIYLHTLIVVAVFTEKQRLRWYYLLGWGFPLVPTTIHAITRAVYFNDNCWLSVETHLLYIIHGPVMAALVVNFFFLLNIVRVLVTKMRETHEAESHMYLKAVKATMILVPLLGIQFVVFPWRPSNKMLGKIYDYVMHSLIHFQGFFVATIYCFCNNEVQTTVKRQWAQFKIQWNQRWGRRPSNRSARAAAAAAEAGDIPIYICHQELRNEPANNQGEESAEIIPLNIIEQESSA

SMILES	ThT pH 4.0 lag time (h) [1] [h]	Ratio hCT/hAmylin funct. [2, 3]	Ratio hCT/hAmylin funct. [2, 4]	Ratio hCT/hAmylin funct. [2, 5]
CC[C@H](C)[C@H](NC(=O)[C@H](C)NC(=O)CNC(=O)[C@H](Cc1ccccc1)NC(=O)[C@H](CC(N)=O)NC(=O)[C@@H]1CCCN1C(=O)[C@H](CO)NC(=O)[C@H](CO)NC(=O)[C@H](Cc1c[nH]cn1)NC(=O)[C@H](CCCNC(=N)N)NC(=O)[C@H](CC(C)C)NC(=O)[C@H](Cc1ccccc1)NC(=O)[C@H](CCCNC(=N)N)NC(=O)[C@H](C)NC(=O)[C@H](CC(C)C)NC(=O)[C@H](CCCNC(=N)N)NC(=O)[C@H](CCC(N)=O)NC(=O)[C@@H](NC(=O)[C@H](C)NC(=O)[C@@H]1CSSC[C@H](NC(=O)[C@@H](N)CCCCNC(=O)CC[C@H](NC(=O)CCCCCCCCCCCCCCCCCCC(=O)O)C(=O)O)C(=O)N[C@@H](CC(N)=O)C(=O)N[C@@H]([C@@H](C)O)C(=O)N[C@@H](C)C(=O)N[C@@H]([C@@H](C)O)C(=O)N1)[C@@H](C)O)C(=O)N1CCC[C@H]1C(=O)N[C@@H](CO)C(=O)N[C@@H](CO)C(=O)N[C@H](C(=O)N[C@@H](CC(N)=O)C(=O)N[C@H](C(=O)NCC(=O)N[C@@H](CO)C(=O)N[C@@H](CC(N)=O)C(=O)N[C@H](C(=O)N[C@@H](Cc1ccc(O)cc1)C(N)=O)[C@@H](C)O)C(C)C)[C@@H](C)O [Example 83]	12	41.6	41.6	41.6
CC[C@H](C)[C@H](NC(=O)[C@H](C)NC(=O)CNC(=O)[C@H](Cc1ccccc1)NC(=O)[C@H](CC(N)=O)NC(=O)[C@@H]1CCCN1C(=O)[C@H](CO)NC(=O)[C@H](CO)NC(=O)[C@H](Cc1c[nH]cn1)NC(=O)[C@H](CCCNC(=N)N)NC(=O)[C@H](CC(C)C)NC(=O)[C@H](Cc1ccccc1)NC(=O)[C@H](CC(N)=O)NC(=O)[C@H](C)NC(=O)[C@H](CC(C)C)NC(=O)[C@H](CCCNC(=N)N)NC(=O)[C@H](CCC(N)=O)NC(=O)[C@@H](NC(=O)[C@H](C)NC(=O)[C@@H]1CSSC[C@H](NC(=O)[C@@H](N)CCCCNC(=O)COCCOCCNC(=O)CCCCCCCCCCCCCCCCCCC(=O)O)C(=O)N[C@@H](CC(N)=O)C(=O)N[C@@H]([C@@H](C)O)C(=O)N[C@@H](C)C(=O)N[C@@H]([C@@H](C)O)C(=O)N1)[C@@H](C)O)C(=O)N1CCC[C@H]1C(=O)N[C@@H](CO)C(=O)N[C@@H](CO)C(=O)N[C@H](C(=O)N[C@@H](CC(N)=O)C(=O)N[C@H](C(=O)NCC(=O)N[C@@H](Cc1c[nH]cn1)C(=O)N[C@@H](CC(N)=O)C(=O)N[C@H](C(=O)N[C@@H](Cc1ccc(O)cc1)C(N)=O)[C@@H](C)O)C(C)C)[C@@H](C)O [Example 91]	4	36.9	36.9	36.9
CC[C@H](C)[C@H](NC(=O)[C@H](C)NC(=O)CNC(=O)[C@H](Cc1ccccc1)NC(=O)[C@H](CC(N)=O)NC(=O)[C@@H]1CCCN1C(=O)[C@H](CO)NC(=O)[C@H](CO)NC(=O)[C@H](Cc1c[nH]cn1)NC(=O)[C@H](CCCNC(=N)N)NC(=O)[C@H](CC(C)C)NC(=O)[C@H](Cc1ccccc1)NC(=O)[C@H](Cc1c[nH]cn1)NC(=O)[C@H](C)NC(=O)[C@H](CC(C)C)NC(=O)[C@H](CCCNC(=N)N)NC(=O)[C@H](CCC(N)=O)NC(=O)[C@@H](NC(=O)[C@H](C)NC(=O)[C@@H]1CSSC[C@H](NC(=O)[C@@H](N)CCCCNC(=O)CC[C@H](NC(=O)CC[C@H](NC(=O)CCCCCCCCCCCCCCCCCCC(=O)O)C(=O)O)C(=O)O)C(=O)N[C@@H](CC(N)=O)C(=O)N[C@@H]([C@@H](C)O)C(=O)N[C@@H](C)C(=O)N[C@@H]([C@@H](C)O)C(=O)N1)[C@@H](C)O)C(=O)N1CCC[C@H]1C(=O)N[C@@H](CO)C(=O)N[C@@H](CO)C(=O)N[C@H](C(=O)N[C@@H](CC(N)=O)C(=O)N[C@H](C(=O)NCC(=O)N[C@@H](CO)C(=O)N[C@@H](CC(N)=O)C(=O)N[C@H](C(=O)N[C@@H](Cc1ccc(O)cc1)C(N)=O)[C@@H](C)O)C(C)C)[C@@H](C)O [Example 92]	8	28.0	28.0	28.0
